# Laboratory results: paper PMC3140512, “Identification of Toxoplasma gondii cAMP Dependent Protein Kinase and Its Role in the Tachyzoite Growth” (PLoS ONE, 2011)
# Target: T1, TgPKA-C (T. gondii PKA catalytic subunit; ToxoDB TGGT1_081170) (Toxoplasma gondii, UniProt Q58G65)
# T1 construct: gene PKA2; entire ORF (343 amino acid residues), GST fusion, wheat germ cell-free expression
# Assay: in vitro radiometric kinase assay ([γ-32P]ATP, Histone IIAS substrate) with purified GST-TgPKA-C
# Format: biochemical
# T1 sequence (Q58G65 entry or part of it): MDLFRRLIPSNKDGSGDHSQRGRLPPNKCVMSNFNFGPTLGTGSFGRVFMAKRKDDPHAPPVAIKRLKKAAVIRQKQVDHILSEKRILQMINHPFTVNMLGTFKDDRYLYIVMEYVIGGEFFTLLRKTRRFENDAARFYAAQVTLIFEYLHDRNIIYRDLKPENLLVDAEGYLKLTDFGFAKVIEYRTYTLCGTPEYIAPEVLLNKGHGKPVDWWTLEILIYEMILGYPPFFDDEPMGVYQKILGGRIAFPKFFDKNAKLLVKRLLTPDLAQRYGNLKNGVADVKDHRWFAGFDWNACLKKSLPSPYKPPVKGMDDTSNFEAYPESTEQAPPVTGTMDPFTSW
compound,measurement,value
"O=S(=O)(NCCNC/C=C/c1ccc(Br)cc1)c1cccc2cnccc12 [H89, N-[2-(p-bromocinnamylamino)ethyl]-5-isoquinolinesulfonamide]",IC50,175 µM
